Results published in a melting point compilation (Tetko et al.; mined from patent text by program, amines drawn as free bases though some values may be those of a salt).

Compound	melting point [°C]
CCOC(=O)CCc1ccc2oc(Cc3ccc4ccccc4c3)nc2c1	81 to 82
COc1ccc(N)cc1Oc1ncc(Cl)cc1Cl	95 to 105
C(=C\c1cccs1)/c1ncon1	78
Cc1nc(-c2ccc(OC(C)C)c(C#N)c2)sc1C(=O)O	220 to 222
COc1ccc2c(c1)-c1c(C#N)c(N3CCCCC3)c3c(c1C2)-c1ccccc1C3	216 to 218
COC(=O)c1cc(C)c(C(OC(=O)C(C)c2ccc3cc(OC)ccc3c2)c2cc(-n3ccnc3)ccc2C)c(C)c1 (centres undefined)	115 to 117
Clc1ccccc1C1(c2ccc(-c3ccccc3)cc2)CO1 (centres undefined)	70
CC(C)OP(=O)(Cc1c(C2CCCCC2)cc(O)cc1C1CCCCC1)OC(C)C	143
O=C(O)CCc1cc(Br)c(OC(=O)c2c3ccccc3nc3ccccc23)c(Br)c1	240 to 242
COC(=O)CCCCCCCNC(=O)C(CSC(C)=O)Cc1ccccc1 (centres undefined)	44 to 45
C[C@@H]1C[C@@H]2c3cccc4c3N(CCNC4)[C@@H]2C1	155 to 158
CC1(C)OCCc2c1n(Cc1ccccc1)c1ccccc21	132 to 134
CCOC(=O)/C=C/C=C(c1cccc([N+](=O)[O-])c1)c1cccc([N+](=O)[O-])c1	105 to 106
Nc1ccc(NC2CCCCC2)cc1	59 to 61
CCOC(=O)C(O)=Cc1ncc(CCc2ccc(F)cc2)cn1	133 to 134
CC1(C)CCC(C)(C)C2=C1CC(C(=O)O)C2	125 to 129
Nc1nc(C[C@H](NC(=O)[C@H](Cc2ccccc2)NS(=O)(=O)N2CCOCC2)C(=O)O)cs1	149 to 151
NC(N)=NC(=O)Cc1c(-c2ccccc2Cl)csc1-c1ccc(OCCc2cn[nH]c2)cc1	71 to 72
COc1ccc(-c2ccc3c(c2)c2ccc(C=Cc4ccccc4)nc2n3S(=O)(=O)c2ccccc2)cc1	193 to 195
Cc1nnc2n1-c1sc(C#CCn3c(=O)n(C)c(=O)c4ccccc43)cc1C(c1ccccc1Cl)=NC2	167 to 170
O=[N+]([O-])c1ccc(OCC(O)CCCl)cc1 (centres undefined)	60 to 63
N#CC1(c2ccc(F)cc2)CCC(N2CCC(C(=O)O)(c3ccccc3)CC2)CC1 (centres undefined)	281
C=CCN1CC(c2ccccc2)=C(OCCN(C)C)C1=O	115 to 117
CCC(=O)Nc1c(C(=O)c2cc(Cl)ccc2[N+](=O)[O-])[nH]c2cc(Cl)ccc12	245 to 246
COC(=O)CCCCCCC1C(=O)Cc2cc(OC)ccc21 (centres undefined)	33.5 to 35

Compound	melting point [°C]
COc1ccc(-c2c(C)cc3c(O)cc(C)nn23)c(C)c1	234 to 237
Cn1c(=O)c(C#N)c(N2CCN(C(=O)c3cccs3)CC2)c2cccnc21	266
COC(=O)c1ccc([C@H]2CC[C@H](C3OCCO3)CC2)cc1	110 to 111
Cc1cn(-c2ccc3c(c2)c2ccccc2n3-c2ccccc2)c(-c2nc(C)cn2-c2ccc3c(c2)c2ccccc2n3-c2ccccc2)n1	245 to 253
CC1CCCN(c2nc(S(C)(=O)=O)nc(Cl)c2-c2c(F)cc(F)cc2F)O1 (centres undefined)	160 to 162
CCCSc1sc(C(=O)N2CCCC2)c2c1C(=O)CC(C)(C)C2	117 to 119
CC(C)(C)OC(=O)NC(C)(C)c1ccc(-c2ccno2)cc1	145 to 146
COC(=O)c1sc2cccc(C#N)c2c1N	169 to 170
N#CN1CCN(c2nn(-c3ccccc3)c3ccccc23)CC1	118 to 120
N#Cc1cc(-c2c3ccccc3cc3sc4ccccc4c23)cc(C#N)c1OCC(=O)O	134 to 136
CCOC(=O)c1cn2c(-c3nn(C)c(OC(F)F)c3Cl)c(F)cc(Cl)c2n1	140 to 143
O=C(O)CCC(O)c1ccc(-c2ccccc2)c(Cl)c1 (centres undefined)	87 to 88
O=C(NCCCOc1cccc(CN2CCCCC2)c1)Nc1ccc2c(c1)OCO2	128 to 130
N#CC1=C(c2ccccc2)Nc2n[nH]cc2C1c1cccc2nsnc12 (centres undefined)	258
CC1(C)OCC(CN2C(=O)C3(COc4cc5c(cc43)OCCO5)c3ccccc32)O1 (centres undefined)	55 to 57
O=Cc1c[nH]c2c1ccc1c2[nH]c2cccc(Br)c21	> 250
Cn1ncnc1COc1nn2c(-c3ccccc3F)nncc2c1-c1cccnc1	181 to 183
CCOC(=O)CSc1nc2ccc(N)cc2s1	87 to 89
CCOC(=O)c1nc2c(=O)[nH]c3cc(C(F)(F)F)ccc3n2c1P(=O)(OCC)OCC	198 to 199
COc1ccccc1-c1c(NC(=O)OCc2ccccc2)oc(=O)c2ccccc12	144 to 146
COC(=O)C[C@H](O)CC(=O)CCc1c(-c2ccc(F)cc2)c(-c2ccccc2)c(C(=O)Nc2ccccc2)n1C(C)C	75 to 77
O=C(O)C1=Cc2cc(C(=O)c3ccccc3)ccc2OC1C(F)(F)F (centres undefined)	270 to 271
C=CS(=O)(=O)CS(=O)(=O)C=C	59 to 61
CC1=CC(OC(=O)c2ccc(N)cc2N)C(O)C(C)(C)CC1=O (centres undefined)	154 to 156
CCCCc1c[nH]c(S(C)=O)c1[N+](=O)[O-] (centres undefined)	133 to 134

Compound	melting point [°C]
NC(=O)Cc1ccc2ccn(C3CCN(CCc4ccc(F)cc4F)CC3)c2c1	157 to 158
CC(C)(C)c1cc(NC(=O)Nc2ccc(Oc3ccncc3)cc2)[nH]n1	178 to 179
Cc1c(F)c(OC(F)F)cc2c1c(C#N)c(-c1ccc(S(=O)(=O)N[C@@H](C)C(F)(F)F)cn1)n2C1CCC1	182 to 186
CON=C(C#N)c1ccccc1S(N)(=O)=O	82 to 90
CC(C)(C)NS(=O)(=O)Cc1cc(Br)c(NC(=O)C(F)(F)F)c(Br)c1	166 to 167
CCCCc1nc2c(N)nc3ccccc3c2n1CCCCNS(=O)(=O)c1ccccc1	75.5 to 79
CC(=O)OC1CC2=CCC3C4CCC(C(C)CBr)C4(C)CCC3C2(C)C(OC(C)=O)C1 (centres undefined)	75 to 76
COc1ccc(-c2nc(Cl)sc2-c2ccc(OC)cc2)cc1	92 to 94
COc1cc2c3ccc(OC)c(OC)c3n(Cc3c(Cl)cccc3Cl)c2cc1OC	207 to 210
Cc1cc(Cl)cc(C(=O)NC(C)C)c1NC(=O)c1cc(Br)nn1-c1ncccc1Cl	159 to 161
CC1=CC(=O)CC(C)(C)C1(O)C/C=C(C)/C=C\O (centres undefined)	127 to 129
CCc1nc2c(C)cc(C)nc2n1Cc1ccc(-c2ccccc2-c2c(N)c(=O)c2=O)cc1	217
CCc1nc2c(cnn2CC)c(NC2CCOCC2)c1CNC(=O)c1cc(C)cc(C(=O)O)c1	236 to 239
CCCc1nc2c(N)nc3cc(OCc4ccc(F)cc4)ccc3c2n1CC(C)C	198 to 200
COc1cc(OC)nc(NC(=O)NS(=O)(=O)c2c3ccccc3nn2C)n1	199 to 202
O=C(Nc1ccc(SC(F)(F)F)cc1)c1cc(S(=O)(=O)c2ccccc2)c2ccccc2c1O	271 to 272
Cn1cc(-c2ncc(OC3SCC(O)C(O)C3O)cc2F)cn1 (centres undefined)	206
O=c1[nH][nH]c(=O)c2c(O)c3ccc(C(F)(F)F)cc3nc12	170 to 172
O=[N+]([O-])c1cccc2c1OC(CO)C2 (centres undefined)	63 to 65
N#Cc1cccc2c1CC(=O)c1cc(F)ccc1S2	174 to 175
Cc1ccc(COc2ccc(CC(NC(=O)c3cc4cc(-c5ccc(Cl)cc5)ccc4s3)C(=O)O)cc2)cc1 (centres undefined)	208
CCC(=C(N)N)[N+](=O)[O-]	114 to 116
O=C(NCC1CCCC1)c1ccc2c(Br)n[nH]c2c1	119 to 125
O=C(O)Cc1ccc2c(c1)C(=O)c1ccccc1CN2	132 to 143
CC(C)c1cccc(C(C)C)c1NC(=O)C1CCCC(Cc2ccccn2)(c2ccccc2)C1=O (centres undefined)	164 to 166

Compound	melting point [°C]
CC(=O)Nc1ccc(OCc2nc3ccc(F)cc3s2)cc1	204 to 205
OC1CCN(c2ncc(-c3cccc(Cl)c3)cn2)CC1	160 to 162
O=C(c1cc(-c2ccccc2)c(N2CCOCC2)s1)c1ccc(Cl)cc1Cl	198 to 199
O=c1[nH]ncc(N2CCN(C34CC5CC(CC(C5)C3)C4)CC2)c1Cl	292 to 294
COC(=O)c1cncc(OCc2nc(-c3ccccc3)oc2C)c1	119 to 120
O=C(NN=CC(F)(F)C(F)(F)F)c1nc(Oc2cccc(C(F)(F)F)c2)ccc1Cl	130 to 131
O=S1(=O)c2ccc(O)cc2Oc2cc(F)ccc21	258 to 260
Cn1cnc(S(=O)(=O)N2CCS(=O)(=O)CC2)c1	179 to 180
O=C(Oc1ccccc1C(=O)NCCO[N+](=O)[O-])c1cccnc1	94 to 96
Oc1ccc(-c2nn(-c3cc(F)ccc3F)c3cc(O)ccc23)c(O)c1	88 to 91
N#CC(c1ccccc1Cl)N1CCOCC1 (centres undefined)	40 to 42
CCN(CC)C(=O)Nc1ccc(Oc2ccc3sncc3c2)c(Cl)c1	141
CCOc1ccc(-c2nc(-c3cc(C=CC(=O)O)c(O)c(C(=O)O)c3)cs2)cc1OCC	260 to 261
Cc1cc(Cl)nc(Nc2ccccc2[N+](=O)[O-])n1	175
O=C(Nc1cccc(Oc2cccc(C(=O)O)c2)c1)NC12CC3CC(CC(C3)C1)C2	152 to 154
CCCCCCNC(=O)CS(=O)(=O)Nc1c(C(C)C)cccc1C(C)C	125 to 127
CC(=O)c1c(O)ccc2c(C)cc(=O)oc12	167 to 169
C#Cc1ccc([C@H]2CC[C@H](CCCCC)CC2)nn1	114 to 116
CC(C)(C)c1ccc(Oc2ccc(NC(=O)c3ccccc3C(c3ccc(O)cc3)c3ccc(O)cc3)cn2)cc1	121 to 125
CCOC(=O)c1cnoc1-c1cccc(OC)c1	85 to 87
COc1cc(C=CC=O)ccc1OC(C)C	93 to 94
Cc1cc(C)cc(Sc2c(C(C)C)c(=O)[nH]c(=O)n2CC2=CCCC2CO)c1 (centres undefined)	66 to 68
COc1ccc2oc(Cc3cccc(Cl)c3)c(CC#N)c2c1	82
COC(=O)C1CCc2cc(C)c(C)cc2C1=O (centres undefined)	80 to 81
